Several values for one entry are separate records, joined by “and”; a condition that tells them apart may be missing. Equal entries are not always repeated. Where two headings read alike, the source gives them in different places.
What was measured:
liver = assay type: in vivo, Male Sprague-Dawley rats; conditions: for Centrilobular collagenous accumulation (Masson's trichrome): 200 mg/kg/day, five-day oral administration;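 as to Cytoplasmic Alteration: Severity grades from None 0% through Minimal Mild Moderate to Marked over 80% tissue affected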;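 as to Inflammation: Severity grades from None 0% through Minimal Mild Moderate to Marked over 80% tissue affected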;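 as to Vacuolation: Severity grades from None 0% through Minimal Mild Moderate to Marked over 80% tissue affected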
[1] = assay type: in vivo, Male Sprague-Dawley rats
[2] = tested on: 67 genes on the fibrosis gene panel; test: Multiplexed fibrosis gene panel (QuantiGene 2.0 Plex / Bioplex) on liver RNA
Method: mRNA is isolated and purified from lysed tissue biopsy specimens. The target mRNA is incubated with beads conjugated to capture probes (each probe is an oligonucleotides specific for one of the genes in the panel). The target is hybridized to the probe by a capture extender-capture probe interaction. Specific mRNA targets hybridize overnight to the respective beads. The signal is amplified by incubating mRNA-capture probe pairs by affixing an amplifier affixed to a biotinylated label probe. Streptavidin-conjugated phycoerythrin (SAPE) is bound to the biotinylated probe to amplify the signal. The signal is detected and quantified by Bioplex suspension array instrumentation, which measures the SAPE fluorescence signal proportional to the amount of mRNA transcripts captured by the bead.
Candidate genes identified by co-expression modules and pathway/network approaches were fabricated into a custom gene panel using a commercial source (the QuantiGene 2.0 Plex assay, Affymetrix, Santa Clara, Calif.). A total of 71 genes plus 3 housekeeping genes were selected. Using 150 ng RNA input, samples were processed following manufacturer's instructions for purified RNA with use of the HandHeld Magnetic Plate Washer. Plates were read immediately following the final wash using the BioPlex 200 instrument (BioRad, Hercules, Calif.). The following parameters were set on the BioPlex instrument: sample size=100 μL; DD Gate=5,000-25,000; Timeout=45 sec; Bead Event/Bead Region=100.
For each sample, the average signal intensity was determined as recommended by the manufacturer. Duplicates were averaged. The average background signal for each gene was subtracted. Assay limit of detection was determined by adding three standard deviations of assay background signals to the average intensity of the background control wells. All intensities lower than the limit of detection for each probe was set to one unit above the probe's limit of detection. Probes with all intensities below the assay limit of detection were removed from the final analysis. The test gene signal was divided by the average intensities of the three normalization genes (Gapdh, Hprt1, Ppib). For each test gene, the fold change was calculated by dividing the normalized value for the treated samples by the normalized value of the vehicle-treated controls. Fold changes were plotted as log2 fold change. Gene expression data were imported into Partek Genomics Suite 6.0 (Partek, Inc., St. Louis, Mo.). Principal component analysis was used for multivariate interpretation to determine sources of variation across sample groups (Joliffe I T, Morgan B J. Principal component analysis and exploratory factor analysis. Statistical methods in medical research 1992; 1(1):69-95). Differentially expressed genes were determined by analysis of variance (ANOVA) with contrasts, setting the ANOVA factors as toxicant and the histopathological endpoint of fibrosis (any score >0). ANOVA variables were fibrosis score 0 (none) vs. score of >0 (minimal, mild, moderate, and marked). For hierarchical biclustering, differentially expressed genes were standardized by setting the genes expressed to a mean of zero and scaling to a standard deviation of one. Euclidean geometry was used to cluster row and column dissimilarity using a method of average linkage.
Chemical-dose groups were down-selected based on histopathology to conform to the 96-well assay format of the multiplexed panel of presumptive fibrosis genes. Three of the four dose groups were evaluated for the fibrogenic chemicals allyl alcohol and 4,4′-methylenedianiline. A single dose was selected with group-matched vehicle controls for each of the remaining chemicals. […] The highest dose of bromobenzene was selected because the vacuolation pathology was only observed at this dose.
Isolated liver RNA was incubated with microbead-bound capture probes specific for the 71 presumptive fibrogenic genes and three housekeeping normalization genes.

[3] = Carbon Tetrachloride 200 mg/kg, animal 54
[4] = histopathology score, individual animals, Carbon Tetrachloride 200, Bromobenzene 785, Dexamethasone 1 mg/kg
[5] = liver RNA, individual animals, Carbon Tetrachloride 200, Bromobenzene 785, Dexamethasone 1 mg/kg

ClC(Cl)(Cl)Cl [carbon tetrachloride]
Centrilobular collagenous accumulation (Masson's trichrome) (liver): pre-fibrogenic lesions in centrilobular region | Centrilobular collagenous accumulation (Masson's trichrome) (liver; listed as Carbon tetrachloride): caused prefibrotic centrilobular collagenous accumulation | Bile Duct Hyperplasia and Fibroplasia (liver; [3]): 0 | Cytoplasmic Alteration (liver; [3]): 0 | Inflammation (liver; [3]): 0 | Necrosis (liver; [3]): 1 | Vacuolation (liver; [3]): 3 | Combined histopathological scores as percent of animals with pathology (liver; across dose groups, five days (figure legend)): dose-dependent increase in severe pathology | Histopathological evidence of vacuolation and/or glycogen accumulation (liver; exposures on the gene panel (FIG. 9 legend)): correlated with histopathological evidence of vacuolation and/or glyocgen accumulation | Bile Duct Hyperplasia and Fibroplasia (liver; [4]): 0 | Inflammation (liver; [4]): 0 | Vacuolation (liver; [4]): 4 and 3 (2×) | Fibrosis histopathology (liver; low-dose (carbon tetrachloride: all doses)): without fibrosis | Vacuolation (liver; oral gavage five days, across doses): dose-dependent increase in vacuolation indicative of lipid accumulation without evidence of fibrosis | Body weight change ([1]; all doses): Body weight gain was less than controls at all doses | Body weight gain over the five experimental dosing days ([1]; dose groups): decrease in body weight gain | A2m differential expression [2, 3]: −3.423 | Arf6 differential expression [2, 3]: 0.270 | Cxcl1 differential expression [2, 3]: 0.190 | RT1-DMa differential expression [2, 3]: 0.225 | Differential Expression of A2m [2, 5]: −2.891 and −2.439 and −5.167 | Differential Expression of Angptl3 [2, 5]: −0.612 and −1.071 and −0.753 and −0.775 | Differential Expression of Anxa2 [2, 5]: 0.553 and 0.586 and 0.834 and 0.587 | Differential Expression of Apoc [2, 5]: −0.311 and −0.356 and −0.337 and −0.414 | Differential Expression of Arf6 [2, 5]: 0.172 and 0.167 and 0.214 | Differential Expression of Arpc1b [2, 5]: 1.102 and 1.145 and 1.554 and 1.382 | Differential Expression of Arrb1 [2, 5]: 1.846 and 2.288 and 2.226 and 1.692 | Differential Expression of C1qb [2, 5]: 0.268 and 0.290 and 0.085 and 0.332 | Differential Expression of CD9 [2, 5]: −0.279 and −0.103 and 0.754 and −0.347 | Differential Expression of CD53 [2, 5]: 0.486 and 1.094 and 1.315 and 1.262 | Differential Expression of CP [2, 5]: −0.227 and −0.328 and −0.317 and −0.414 | Differential Expression of Capg [2, 5]: 0.433 and 0.855 and 0.909 and 0.968 | Differential Expression of Ccl2 [2, 5]: 1.671 and 1.662 and 2.378 and 1.370 | Differential Expression of Col1a1 [2, 5]: 1.336 and 1.411 and 1.309 and 1.774 | Differential Expression of Col1a2 [2, 5]: 0.249 and 0.458 and 0.329 and 0.672 | Differential Expression of Col4a1 [2, 5]: −0.521 and −0.024 and −0.441 and 0.104 | Differential Expression of Col5a2 [2, 5]: 1.411 and 2.330 and 2.442 and 2.138 | Differential Expression of Ctgf [2, 5]: 2.135 and 2.232 and 2.664 and 1.663 | Differential Expression of Cxcl1 [2, 5]: −0.500 and −0.165 and −0.462 | Differential Expression of Cxcl12 [2, 5]: 0.040 and 0.320 and 0.041 and 0.403 | Differential Expression of Cxcl16 [2, 5]: 1.440 and 1.782 and 1.992 and 1.656 | Differential Expression of Cyba [2, 5]: 0.522 and 0.799 and 0.888 and 0.887 | Differential Expression of Cyp2c11 [2, 5]: −1.357 and −3.301 and −0.339 and −0.904 | Differential Expression of Dsc2 [2, 5]: 0.091 and −0.280 and −0.204 and −0.265 | Differential Expression of Fam102b [2, 5]: −0.378 and −0.140 and −0.011 and −0.240 | Differential Expression of Fam105a [2, 5]: 0.309 and 0.576 and 0.985 and 0.758 | Differential Expression of Fbn1 [2, 5]: −0.149 and 0.230 and −0.294 and 0.107 | Differential Expression of Fn1 [2, 5]: −0.120 and −0.152 and −0.364 and −0.262 | Differential Expression of Fstl1 [2, 5]: −0.259 and 0.017 and −0.180 and 0.025 | Differential Expression of Fxyd5 [2, 5]: 0.160 and 0.404 and 0.507 and 0.213 | Differential Expression of Gpnmb [2, 5]: 1.494 and 2.232 and 3.101 and 2.714 | Differential Expression of Igfals [2, 5]: −0.528 and −0.092 and −0.771 and −0.189 | Differential Expression of Igfbp1 [2, 5]: 0.019 and 0.070 and 0.480 and −0.925 | Differential Expression of Igfbp2 [2, 5]: −0.542 and 1.416 and 0.505 and −1.839 | Differential Expression of Igfbp3 [2, 5]: −0.324 and 0.063 and −0.304 and −0.113 | Differential Expression of Itga1 [2, 5]: 0.220 and 0.585 and 0.503 and 0.756 | Differential Expression of Itgb2 [2, 5]: −0.115 and 0.502 and 0.455 and 0.302 | Differential Expression of Lame2 [2, 5]: 2.323 and 2.130 and 2.338 and 1.341 | Differential Expression of Lbp [2, 5]: 0.594 and 0.379 and 0.665 and 0.050 | Differential Expression of Len2 [2, 5]: −1.654 and 0.356 and 1.528 and 2.126 | Differential Expression of Lgals1 [2, 5]: 0.936 and 0.978 and 1.986 and 1.602 | Differential Expression of Lgals3 [2, 5]: 0.994 and 1.444 and 2.024 and 1.736 | Differential Expression of Lgals3bp [2, 5]: 0.391 and 0.486 and 0.360 and 0.302 | Differential Expression of Lox [2, 5]: −0.215 and −0.493 and 0.022 and 0.077 | Differential Expression of Lrp1 [2, 5]: −0.329 and −0.337 and −0.524 and −0.671 | Differential Expression of Lum [2, 5]: 0.298 and −0.201 and 0.404 and 0.442 | Differential Expression of Mmp2 [2, 5]: −0.062 and 0.311 and 0.610 and −0.241 | Differential Expression of Nid1 [2, 5]: −0.021 and 0.232 and 0.186 and 0.154 | Differential Expression of Pcolce [2, 5]: 0.002 and 0.354 and 0.651 and −0.401 | Differential Expression of Pkm2 [2, 5]: 0.077 and 0.586 and 0.642 and 0.663 | Differential Expression of Plat [2, 5]: −0.025 and −0.411 and −0.289 and −0.385 | Differential Expression of Plau [2, 5]: 0.039 and 0.765 and 0.947 and 0.720 | Differential Expression of Plod2 [2, 5]: −0.129 and −0.357 and −0.045 and −0.258 | Differential Expression of RT1-DMa [2, 5]: 0.711 and 0.673 and 1.089 | Differential Expression of RT1-Da [2, 5]: 0.559 and 0.918 and 1.213 and 1.280 | Differential Expression of S100A6 [2, 5]: −0.079 and −0.686 and 0.408 and −0.019 | Differential Expression of S100A11 [2, 5]: 0.119 and 0.421 and 0.731 and 0.599 | Differential Expression of Serpine1 [2, 5]: 0.309 and −0.345 and 0.467 and −0.524 | Differential Expression of Serping1 [2, 5]: −0.712 and −0.714 and −0.546 and −0.514 | Differential Expression of Slc25a24 [2, 5]: −0.245 and −0.511 and −0.262 and −0.615 | Differential Expression of Sod2 [2, 5]: 0.022 and 0.009 and −0.014 and −0.116 | Differential Expression of TagIn2 [2, 5]: 0.218 and 0.282 and 0.110 and 0.153 | Differential Expression of Tgfb1 [2, 5]: −0.322 and 0.107 and −0.102 and −0.395 | Differential Expression of Timp1 [2, 5]: 0.939 and 1.200 and 1.645 and 1.241 | Differential Expression of Vhl [2, 5]: 2.369 and 2.626 and 2.628 and 2.130 | Differential Expression of Vim [2, 5]: 0.044 and 0.004 and 0.348 and 0.360 | Differential Expression of Vtn [2, 5]: −0.291 and −0.381 and −0.494 and −0.473 | Panel gene expression relative to other chemical-dose groups ([2]; liver, 67-gene panel): mid-way between fibrosis-positive chemical-dose groups and non-fibrogenic chemical-dose groups | Hierarchical biclustering of log2 fold-changes in panel gene expression ([2]; liver, 67 genes): clustered mid-way between non-fibrogenic and fibrogenic doses of the other fibrogenic chemicals
